Laboratory results: ChEMBL document CHEMBL4715897, “A new 1-nitro-9-aminoacridine derivative targeting yeast topoisomerase II able to overcome fluconazole-resistance” (2021)
≈ marks a conversion by molar mass, not a printed value. Calls of active or inactive are those of the source. The calls are words filed in the database; no cut-off is given here.

Columns and labels:
[1] = tested on: Saccharomyces cerevisiae; assay: Inhibition of Saccharomyces cerevisiae DNA topoisomerase 2 assessed as decrease in relaxation of supercoiled DNA using supercoiled pBR322 plasmid DNA at 100 to 150 uM gel electrophoresis method; details: dose 100-150 µM
[2] = tested on: Candida albicans; assay: Antifungal activity against Candida albicans ATCC 10231 assessed as reduction in microbial growth; type: functional
[3] = tested on: Pichia kudriavzevii; assay: Antifungal activity against Candida krusei ATCC 6258 assessed as reduction in microbial growth; type: functional
[4] = tested on: Nakaseomyces glabratus; assay: Antifungal activity against Candida glabrata ATCC 90030 assessed as reduction in microbial growth; type: functional
[5] = tested on: Saccharomyces cerevisiae; assay: Antifungal activity against Saccharomyces cerevisiae ATCC 9763 assessed as reduction in microbial growth; type: functional
[6] = tested on: Candida parapsilosis; assay: Antifungal activity against Candida parapsilosis ATCC 22019 assessed as reduction in microbial growth; type: functional; details: Lodderomyces parapsilosis
[7] = tested on: Candida albicans; assay: Antifungal activity against fluconazole-sensitive Candida albicans B3 assessed as reduction in microbial growth; type: functional
[8] = tested on: Candida albicans; assay: Antifungal activity against fluconazole-sensitive Candida albicans F2 assessed as reduction in microbial growth; type: functional
[9] = tested on: Candida albicans; assay: Growth inhibition of Candida albicans ATCC 10231 assessed as reduction in yeast to mycelium formation by measuring reduction in hyphal growth at concentration of 0.25 MIC after 3 hrs in G1cNAc medium by light microscopic method relative to control; type: functional, organism-based
[10] = tested on: Candida albicans; assay: Antifungal activity against fluconazole-resistant Candida albicans B4 assessed as reduction in microbial growth; type: functional
[11] = tested on: Candida albicans; assay: Antifungal activity against fluconazole-resistant Candida albicans Gu5 assessed as reduction in microbial growth; type: functional
[12] = tested on: Candida albicans; assay: Antibiofilm activity against Candida albicans ATCC 10231 at concentration of 0.25 MIC by XTT assay; type: functional, organism-based
[13] = tested on: Candida albicans; assay: Growth inhibition of Candida albicans ATCC 10231 assessed as reduction in yeast to mycelium formation by measuring reduction in hyphal growth at 0.25 MIC after 3 hrs by light microscopic method relative to control; type: functional
[14] = tested on: Pichia kudriavzevii; assay: Fungicidal activity against Candida krusei DSM 6128; type: functional
[15] = Ratio of MFC for fungicidal activity against Saccharomyces cerevisiae ATCC 9763 to MIC for antifungal activity against Saccharomyces cerevisiae ATCC 9763; type: functional
[16] = tested on: Candida albicans; assay: Antifungal activity against fluconazole-resistant Candida albicans F5 assessed as reduction in microbial growth; type: functional
[17] = tested on: Saccharomyces cerevisiae; assay: Fungicidal activity against Saccharomyces cerevisiae ATCC 9763; type: functional
[18] = tested on: Candida albicans; assay: Antifungal activity against fluconazole-sensitive Candida albicans Gu4 assessed as reduction in microbial growth; type: functional
[19] = tested on: Nakaseomyces glabratus; assay: Fungicidal activity against Candida glabrata DSM 11226; type: functional
[20] = tested on: Candida albicans; assay: Growth inhibition of Candida albicans ATCC 10231 assessed as reduction in yeast to mycelium formation by measuring reduction in hyphal growth at concentration of 0.25 MIC after 3 hrs in YPG medium by light microscopic method relative to control; type: functional, organism-based
[21] = tested on: Candida parapsilosis; assay: Fungicidal activity against Candida parapsilosis DSM 5784; type: functional; details: Lodderomyces parapsilosis
[22] = tested on: Escherichia coli; assay: Antibacterial activity against Escherichia coli ATCC 10536 assessed as reduction in microbial growth incubated for 48 hrs by photometric method; type: functional
[23] = tested on: Candida albicans; assay: Fungicidal activity against Candida albicans ATCC 10231; type: functional
[24] = tested on: Saccharomyces cerevisiae; assay: Inhibition of Saccharomyces cerevisiae DNA topoisomerase 2 assessed as decrease in relaxation of supercoiled DNA using supercoiled pBR322 plasmid DNA at 1 to 200 uM gel electrophoresis method; details: dose 1-200 µM
[25] = tested on: Staphylococcus aureus; assay: Antibacterial activity against Staphylococcus aureus ATCC 9144 assessed as reduction in microbial growth incubated for 48 hrs by photometric method; type: functional
[26] = tested on: Candida albicans; assay: Antifungal activity against Candida albicans CNCM 1180-79 assessed as reduction in microbial growth incubated for 72 hrs by photometric method; type: functional
[27] = tested on: Candida; assay: Antifungal activity against Candida; type: functional

Row | SMILES | MIC90 [2] [µg/mL] | MIC90 [3] [µg/mL] | MIC90 [4] [µg/mL] | MIC90 [5] [µg/mL] | MIC90 [6] [µg/mL] | MIC90 [7] [µg/mL] | MIC90 [8] [µg/mL] | MIC90 [10] [µg/mL] | MIC90 [11] [µg/mL] | Activity [12] | Ratio [15] | MIC90 [16] [µg/mL] | MFC [17] [µg/mL] | MIC90 [18] [µg/mL] | MFC [19] [µg/mL] | inhibition [24] | further results
1 | COc1cc(NS(C)(=O)=O)ccc1Nc1c2ccccc2nc2ccccc12 |  |  |  |  |  |  |  |  |  |  |  |  |  |  |  |  | inhibition [1]: Active
2 | Cc1ccc([N+](=O)[O-])c2c(NCCNCCNCCNc3c4ccccc4nc4c(C)ccc([N+](=O)[O-])c34)c3ccccc3nc12 | > 32 | > 32 | > 32 | 32 | > 32 |  |  |  |  |  |  |  |  |  |  |  | 
3 | O=[N+]([O-])c1cccc2nc3ccccc3c(NCCNCCNCCNc3c4ccccc4nc4cccc([N+](=O)[O-])c34)c12 | 64 | 32 | 32 | 8 | 32 | > 64 | > 64 | > 64 | > 64 | Active | >=1 | > 64 | 16 (≈ 27.1 µM) | > 64 | 32 (≈ 54.2 µM) |  | inhibition [1]: Active; growth inhibition (GI) [9]: inactive; growth inhibition (GI) [13]: 100%; MFC [14]: 32 µg/mL (≈ 54.2 µM); growth inhibition (GI) [20]: Active
4 | O=[N+]([O-])c1cccc2nc3ccccc3c(NCCO)c12 | 2 | 8 | 16 | 0.25 | 32 | 2 | 4 | > 64 | 32 | Active | >=1 | > 64 | 0.25 (≈ 0.882 µM) | 4 | 32 (≈ 113 µM) | inactive | MFC [21]: 64 µg/mL (≈ 226 µM); growth inhibition (GI) [9]: inactive; MIC [22]: 50 µg/mL; MFC [23]: 4 µg/mL (≈ 14.1 µM); growth inhibition (GI) [13]: inactive; MFC [14]: 32 µg/mL (≈ 113 µM); MIC [25]: 50 µg/mL; MIC [26]: 50 µg/mL; growth inhibition (GI) [20]: inactive
5 | Cc1ccc([N+](=O)[O-])c2c(NCCOC(=O)[C@@H](N)CCCCN)c3ccccc3nc12 | 4 | 16 | 32 | 1 | 64 | 16 | 8 | > 64 | > 64 | inactive | >=1 | > 64 | 2 (≈ 4.7 µM) | 8 | 64 (≈ 150 µM) | inactive | MFC [23]: 16 µg/mL (≈ 37.6 µM); MFC [14]: 32 µg/mL (≈ 75.2 µM)
6 | CN(CCCNc1c2ccccc2nc2cccc([N+](=O)[O-])c12)CCCNc1c2ccccc2nc2cccc([N+](=O)[O-])c12 | > 16 | > 16 | > 16 | 4 | > 16 |  |  |  |  |  | >=1 |  | 4 (≈ 6.78 µM) |  |  |  | 
7 | Cc1ccc([N+](=O)[O-])c2c(NCCCN(C)CCCNc3c4ccccc4nc4c(C)ccc([N+](=O)[O-])c34)c3ccccc3nc12 | > 16 | > 16 | > 16 | 8 | > 16 |  |  |  |  |  | >=1 |  | 8 (≈ 13 µM) |  |  |  | 
8 | Cc1ccc([N+](=O)[O-])c2c(NCCCNC(=O)[C@@H](N)CCCCN)c3ccccc3nc12 | 32 | 64 | > 64 | 32 | > 64 | > 64 | > 64 | > 64 | > 64 |  | >=1 | > 64 | 32 (≈ 73 µM) | > 64 |  | Active | growth inhibition (GI) [9]: inactive; growth inhibition (GI) [13]: 100%
9 | NCCCC[C@H](N)C(=O)OCCNc1c2ccccc2nc2cccc([N+](=O)[O-])c12 | 4 | 16 | 16 | 0.5 | 32 | 4 | 4 | > 64 | > 64 | Active | >=1 | > 64 | 1 (≈ 2.43 µM) | 4 | 64 (≈ 156 µM) | inactive | MFC [21]: 128 µg/mL (≈ 311 µM); MFC [23]: 16 µg/mL (≈ 38.9 µM); MFC [14]: 64 µg/mL (≈ 156 µM)
10 | Cc1ccc([N+](=O)[O-])c2c(NCCOC(=O)CCCCC(=O)OCCNc3c4ccccc4nc4c(C)ccc([N+](=O)[O-])c34)c3ccccc3nc12 | > 32 | > 32 | > 32 | > 32 | > 32 |  |  |  |  |  |  |  |  |  |  |  | 
11 | OC(Cn1cncn1)(Cn1cncn1)c1ccc(F)cc1F [FLUCONAZOLE] | 8 |  |  |  |  | 1 | 8 | 16 | > 64 |  |  | > 64 |  | 4 |  |  | 
12 | Nc1cccc2nc3ccccc3c(NCCO)c12 | > 64 | > 64 | > 64 | > 64 | > 64 |  |  |  |  |  |  |  |  |  |  |  | 
13 | O=C(CCCCC(=O)OCCNc1c2ccccc2nc2cccc([N+](=O)[O-])c12)OCCNc1c2ccccc2nc2cccc([N+](=O)[O-])c12 | > 16 | > 16 | > 16 | > 16 | > 16 |  |  |  |  |  |  |  |  |  |  |  | 
14 | Cc1ccc(N)c2c(NCCO)c3ccccc3nc12 | > 64 | 64 | 64 | 64 | 64 |  |  |  |  |  |  |  |  |  |  |  | 
15 | NCCCC[C@H](N)C(=O)NCCCNc1c2ccccc2nc2cccc([N+](=O)[O-])c12 | 8 | 64 | 32 | 16 | 32 | 16 | 64 | 16 | 32 | Active | >=1 | 64 | 16 (≈ 37.7 µM) | 32 | > 128 | Active | MFC [21]: > 128 µg/mL; inhibition [1]: Active; growth inhibition (GI) [9]: Active; MFC [23]: 16 µg/mL (≈ 37.7 µM); growth inhibition (GI) [13]: Active; growth inhibition (GI) [20]: Active
16 | COc1cc([C@@H]2c3cc4c(cc3[C@@H](O[C@@H]3O[C@@H]5CO[C@@H](C)O[C@H]5[C@H](O)[C@H]3O)[C@H]3COC(=O)[C@H]23)OCO4)cc(OC)c1O [ETOPOSIDE] |  |  |  |  |  |  |  |  |  |  |  |  |  |  |  |  | MIC [27]: 50 µg/mL (≈ 85 µM)
